EC50 data for 56 compounds are collected here from US9676780B2, “Piperazine-substituted [1,2,4]triazolo[1,5-C]quinazolin-5-amine compounds with A2A antagonist properties” (MERCK SHARP & DOHME CORP., priority 2012, dated 2017).

For the assay, the target named is T1, human A2a receptor (Homo sapiens, UniProt P29274).
T1 construct: purchased Perkin-Elmer RBHA2AM400UA; host or cells: HEK293
As to the kind of experiment: A2a receptor competition binding assay (Scintillation Proximity, tritiated radioligand). Particulars: membranes from HEK293 cells expressing the human A2a receptor; 0.5 nM tritiated ligand; SPA beads; one hour at room temperature; read-out: A2a EC50. Here is the method: Binding affinities of compounds of the invention for the human A2a receptor were determined in a competition binding assay using Scintillation Proximity technology. […] The beads were then allowed to settle to the bottom of the wells for 1 hr, after which the membrane-associated radioactivity was determined by scintillation counting in a TopCount microplate reader. Ki values were determined using the Cheng-Prusoff equation.
• HEK293 cells expressing the human, rat, dog or monkey adenosine 2a receptor (Purchased from Perkin-Elmer # RBHA2AM400UA). • The Tritiated compound was prepared in-house by MRL Radiochemistry according to published methods. • Wheatgerm agglutinin-coated yttrium silicate SPA beads (GE Healthcare #RPNQ0023). […] This is a 2.5× solution. The final concentration in the assay is 0.5 nM. Calculate the concentration by counting two 5 ul aliquots. Membrane Preparation • Use 0.25 ug of membrane/well. Dilute membranes to 9.7 ug/ml in assay buffer. Treat with 20 ug/ml adenosine deaminase (ADA) for 15 minutes at room temperature to degrade endogenous adenosine. Membrane-Bead Mixture • Use 100 ug/well wheatgerm agglutinin-coated yttrium silicate SPA beads. • Mix ADA-treated membranes and SPA beads together for 30 min prior to assay. […] Incubate for one hour at room temperature with agitation. • Include total binding (assay buffer+1% DMSO) and non-specific binding (CGS15943, 1 uM) wells. Counting • Allow the beads to settle for one hour. • Count in TopCount. Calculations • A curve fitting program (i.e., Prism, Activity Base, Chemcart) is used to determine the EC50.
The Ki value is calculated using the Cheng-Prusoff equation. Ki=EC50/(1+(radioligand concentration/Kd))
In general terms: SPA uses beads or plates that emit light when radiolabelled molecules are held near them.

T1 sequence (P29274 whole entry): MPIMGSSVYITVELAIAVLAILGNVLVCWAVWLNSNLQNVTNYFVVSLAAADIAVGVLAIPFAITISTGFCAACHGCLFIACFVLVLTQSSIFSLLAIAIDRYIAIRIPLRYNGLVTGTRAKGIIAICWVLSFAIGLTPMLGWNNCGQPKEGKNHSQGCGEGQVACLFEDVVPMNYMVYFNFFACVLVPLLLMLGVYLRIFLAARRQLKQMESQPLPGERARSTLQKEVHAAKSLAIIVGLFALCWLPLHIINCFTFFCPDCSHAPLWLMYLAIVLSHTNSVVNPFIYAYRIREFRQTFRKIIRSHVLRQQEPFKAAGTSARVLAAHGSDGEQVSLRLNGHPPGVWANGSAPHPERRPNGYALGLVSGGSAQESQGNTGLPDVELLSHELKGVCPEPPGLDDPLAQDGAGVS

On to `COc1cccc2c1nc(N)n1nc(CN3CCN(C(C)c4ccc(F)cc4F)CC3C)nc21` (centres unmarked) [Ex-93], for which the EC50 (commonly the concentration that produces a half-maximal response) amounted to 4.6 nM.

On to `COCCOc1ccc(N2CCN(Cc3nc4c5cccc(OC)c5nc(N)n4n3)C(C)C2)cc1` (centres unmarked) [Ex-94], for which the EC50 is 1.85 nM. Then `COc1cccc2c1nc(N)n1nc(CN3CCN(c4ccc(F)cc4F)CC3C)nc21` (centres unmarked) [Ex-95], with 3.1 nM. Then `COc1cc(F)ccc1N1CCN(Cc2nc3c4cccc(OC)c4nc(N)n3n2)C(C)C1` (centres unmarked) [Ex-96], with 3.41 nM.

On to `COc1cccc2c1nc(N)n1nc(CN3CCN(c4ccnc(C(F)(F)F)c4)CC3C)nc21` (centres unmarked) [Ex-97], for which the EC50 amounted to 18.2 nM. Then `COc1cccc2c1nc(N)n1nc(CN3CCN(c4cc(C)ccn4)CC3C)nc21` (centres unmarked) [Ex-98], with 39.7 nM.

For `COc1cccc2c1nc(N)n1nc(CN3CCN(c4cccc(C)n4)CC3C)nc21` (centres unmarked) [Ex-99], the EC50 worked out at 46.3 nM. As to `COc1cccc2c1nc(N)n1nc(CN3CCN(c4ccncc4C(F)(F)F)CC3C)nc21` (centres unmarked) [Ex-100], the EC50 is 29.4 nM. Then `COc1cccc2c1nc(N)n1nc(CN3CCN(c4cc(F)cc(Cl)c4)CC3C)nc21` (centres unmarked) [Ex-101], with 4.95 nM; and `COc1cccc2c1nc(N)n1nc(CN3CCN(c4ccc(F)c(Cl)c4)CC3C)nc21` (centres unmarked) [Ex-102], with 2.14 nM.

With `COc1cc(Cl)cc(N2CCN(Cc3nc4c5cccc(OC)c5nc(N)n4n3)C(C)C2)c1` (centres unmarked) [Ex-103], the EC50 amounted to 5.56 nM.

Take `COc1cccc2c1nc(N)n1nc(CN3CCN(c4ccncc4F)CC3C)nc21` (centres unmarked) [Ex-104]: the EC50 was 23.1 nM. To `COc1cc(N2CCN(Cc3nc4c5cccc(OC)c5nc(N)n4n3)C(C)C2)ccn1` (centres unmarked) [Ex-105] belongs 16.8 nM; to `COc1cccc2c1nc(N)n1nc(CN3CCN(c4cc(F)cc(F)c4)CC3C)nc21` (centres unmarked) [Ex-106], 4.73 nM. To `COc1cccc2c1nc(N)n1nc(CN3CCN(c4cc(F)ccn4)CC3C)nc21` (centres unmarked) [Ex-107] belongs 6.98 nM; to `COc1cccc2c1nc(N)n1nc(CN3CCN(c4nsnc4OCCO)CC3C)nc21` (centres unmarked) [Ex-109], 4.66 nM. `COc1cccc2c1nc(N)n1nc(CN3CCN(c4ccc5nc(C6CC6)oc5c4)CC3C)nc21` (centres unmarked) [Ex-110]: the EC50 worked out at 1.1 nM. Regarding `COc1cccc2c1nc(N)n1nc(CN3CCN(c4cccc5c4cnn5C)CC3C)nc21` (centres unmarked) [Ex-112], the EC50 was found to be 1.6 nM. To `COc1cccc2c1nc(N)n1nc(CN3CCN(c4cnccn4)CC3C)nc21` (centres unmarked) [Ex-113] belongs 27.3 nM; to `COc1cccc2c1nc(N)n1nc(CN3CCN(c4cc(C#N)ccn4)CC3C)nc21` (centres unmarked) [Ex-114], 12.3 nM; to `COc1cc(N2CCN(Cc3nc4c5cccc(OC)c5nc(N)n4n3)C(C)C2)ccc1F` (centres unmarked) [Ex-115], 1.39 nM.

Consider `COc1cncc(N2CCN(Cc3nc4c5cccc(OC)c5nc(N)n4n3)C(C)C2)c1OC` (centres unmarked) [Ex-116], for which the EC50 came to 3.03 nM. Then `COc1cccc2c1nc(N)n1nc(CN3CCN(c4ccc(C(F)(F)F)c(C(F)(F)F)c4)CC3C)nc21` (centres unmarked) [Ex-117], with 12.7 nM; and `COc1ccc(N2CCN(Cc3nc4c5cccc(OC)c5nc(N)n4n3)C(C)C2)cc1C(F)(F)F` (centres unmarked) [Ex-118], with 1.25 nM. Then `COc1cccc2c1nc(N)n1nc(CN3CCN(c4ccc(N5CCOCC5)cc4)CC3C)nc21` (centres unmarked) [Ex-119], with 1.97 nM; and `COc1cccc2c1nc(N)n1nc(CN3CCN(c4cc(C(F)(F)F)cc(C(F)(F)F)c4)CC3C)nc21` (centres unmarked) [Ex-120], with 20.7 nM; and `COc1ccc(Cl)c(N2CCN(Cc3nc4c5cccc(OC)c5nc(N)n4n3)C(C)C2)c1` (centres unmarked) [Ex-121], with 13.2 nM.

Turning to `COc1cccc2c1nc(N)n1nc(CN3CCN(c4ncc(F)cc4F)CC3C)nc21` (centres unmarked) [Ex-122], the EC50 came to 4.86 nM. To `COc1cccc2c1nc(N)n1nc(CN3CCN(c4cc(C(F)F)ccn4)CC3C)nc21` (centres unmarked) [Ex-123] belongs 4.25 nM; to `COc1cccc2c1nc(N)n1nc(CN3CCN(c4cc(Cl)cc(Cl)c4)CC3C)nc21` (centres unmarked) [Ex-124], 2.82 nM.

For the compound `COc1cc(N2CCN(Cc3nc4c5cccc(OC)c5nc(N)n4n3)C(C)C2)ccc1Cl` (centres unmarked) [Ex-125], the EC50 turned out to be 1.03 nM. To `COc1cccc2c1nc(N)n1nc(CN3CCN(c4cccc(N(C)C)c4)CC3C)nc21` (centres unmarked) [Ex-126] belongs 2.39 nM. Then `COc1cccc2c1nc(N)n1nc(CN3CCN(c4ccc(Cl)c(Cl)c4)CC3C)nc21` (centres unmarked) [Ex-127], with 3.08 nM. Then `COc1cccc2c1nc(N)n1nc(CN3CCN(c4ccc5c(c4)c(C)nn5C)CC3C)nc21` (centres unmarked) [Ex-128], with 0.964 nM; and `COc1cccc2c1nc(N)n1nc(CN3CCN(c4c(C)nn(C)c4C)CC3C)nc21` (centres unmarked) [Ex-129], with 11.6 nM; and `COc1cccc2c1nc(N)n1nc(CN3CCN(c4ccc5c(cnn5C)c4)CC3C)nc21` (centres unmarked) [Ex-130], with 0.898 nM. For the compound `COc1cccc2c1nc(N)n1nc(CN3CCN(c4ccc5nn(C)cc5c4)CC3C)nc21` (centres unmarked) [Ex-131], the concentration giving a half-maximal response (EC50) amounted to 0.698 nM. To `COc1cccc2c1nc(N)n1nc(CN3CCN(c4cccc5nn(C)cc45)CC3C)nc21` (centres unmarked) [Ex-132] belongs 2.04 nM; to `COc1cc(OC)cc(N2CCN(Cc3nc4c5cccc(OC)c5nc(N)n4n3)C(C)C2)c1` (centres unmarked) [Ex-133], 1.68 nM. To `COc1cccc2c1nc(N)n1nc(CN3CCN(c4ccc(Cl)cn4)CC3C)nc21` (centres unmarked) [Ex-134] belongs 4.57 nM; to `COc1cccc2c1nc(N)n1nc(CN3CCN(c4nccnc4C)CC3C)nc21` (centres unmarked) [Ex-135], 10.7 nM.

As for `COc1cccc2c1nc(N)n1nc(CN3CCN(c4ccc(F)c(C)n4)CC3C)nc21` (centres unmarked) [Ex-136], the half-maximal effective concentration (EC50) came out at 11.4 nM. To `COc1cccc2c1nc(N)n1nc(CN3CCN(c4ccc(C#N)cn4)CC3C)nc21` (centres unmarked) [Ex-137] belongs 20.6 nM. On to `COc1cccc2c1nc(N)n1nc(CN3CCN(c4ccc(C)cn4)CC3C)nc21` (centres unmarked) [Ex-138], for which the EC50 worked out at 14.3 nM. Then `COc1cccc2c1nc(N)n1nc(CN3CCN(c4cc(C(F)(F)F)c(C(F)(F)F)cn4)CC3C)nc21` (centres unmarked) [Ex-139], with 81.8 nM. To `COc1cccc2c1nc(N)n1nc(CN3CCN(c4cnn(CC(C)(C)C)c4)CC3C)nc21` (centres unmarked) [Ex-140] belongs 4.93 nM; to `COCc1c2cc(N3CCN(Cc4nc5c6cccc(OC)c6nc(N)n5n4)C(C)C3)ccc2nn1C` (centres unmarked) [Ex-141], 2.34 nM; to `COc1ccnc(N2CCN(Cc3nc4c5cccc(OC)c5nc(N)n4n3)C(C)C2)c1` (centres unmarked) [Ex-142], 16.5 nM.

Consider `COc1cccc2c1nc(N)n1nc(CN3CCN(c4cccc(S(C)(=O)=O)c4)CC3C)nc21` (centres unmarked) [Ex-143], for which the concentration giving a half-maximal response (EC50) was determined as 13.9 nM.

`COc1cccc2c1nc(N)n1nc(CN3CCN(c4cnccc4C)CC3C)nc21` (centres unmarked) [Ex-144]: the EC50 is 20.1 nM. To `COc1cncc(N2CCN(Cc3nc4c5cccc(OC)c5nc(N)n4n3)C(C)C2)c1` (centres unmarked) [Ex-146] belongs 6.35 nM; to `COc1cccc2c1nc(N)n1nc(C(=O)N3CCN(CC(F)(F)F)CC3C)nc21` (centres unmarked) [Ex-147], 6.6 nM; to `COc1cccc2c1nc(N)n1nc(CN3CCN(c4ncccc4C(F)(F)F)CC3C)nc21` (centres unmarked) [Ex-148], 18 nM. Then `COc1cccc2c1nc(N)n1nc(CN3CCN(c4cc(F)cc(C(=O)O)c4)CC3C)nc21` (centres unmarked) [Ex-149], with 13.4 nM. Then `COc1cccc2c1nc(N)n1nc(CN3C(C)CN(c4ccc(F)cn4)CC3C)nc21` (centres unmarked) [Ex-150], with 15 nM; and `COc1cccc2c1nc(N)n1nc(CN3CCN(c4ccc(OCC(F)F)cc4)CC3C)nc21` (centres unmarked) [Ex-151], with 2.22 nM.
